In publication PMC10574143, “Exploring the Solubility Limits of Edaravone in Neat Solvents and Binary Mixtures: Experimental and Machine Learning Study” (Molecules, 2023):

Assay: solubility data curation, three-parameter van't Hoff consensus
Format: physicochemical
Details: methanol, van't Hoff fit to data of refs 21, 26
Source text: The dataset characterizing edaravone solubility is an accumulation of values collected from available literature sources augmented with a series of new measurements reported in this paper, which are summarized in Supplementary Section S1. There are three accounts documenting the temperature-dependent solubility of the titled compound in fifteen neat solvents including alcohols, esters, some aprotic solvents, and water. Moreover, nine binary solvent mixtures were used for EDA dissolution measurements at a range of temperatures with a variety of binary compositions. […] First of all, one can notice serious divergences in the reported solubility values for some systems. This inconsistency prohibits the direct use of such a collection for the training of models due to the inherent noise in the dataset, which is a frequently occurring problem intrinsic to diverse measurement protocols. […] Secondly, the solubility space is not represented uniformly due to different numbers of measurements for dissimilar temperature ranges and concentrations of solvent mixtures, which might overrepresent those systems studied more extensively in the dataset. Finally, the main focus in solubility determination was narrowed to polar protic solvents, with very limited representation of non-protic or diprotic solvents. To address the first two issues, the final collection was cured using commonly accepted model equations by fitting their parameters based on experimental mole fractions. Here, the three-parameter van’t Hoff and Jouyban–Acree equations were used for neat and binary solvents, respectively. In addition, temperature standardization was performed for a uniform representation of solubility in the final dataset. […] The complete list of experimental solubility data is provided in the Supporting Materials (see Section S2). As can be directly inferred from the plots presented in Figure 1, incongruences appear not only in the solubility values but also in their temperature trends. […] Since only an arbitrary decision would allow the rejection of either of the measurement series, the final solubility dataset was constructed based on the predictions of the van’t Hoff equation, parametrized using all available experimental data. Moreover, temperature normalization was adopted by accepting data between 0 °C and 50 °C with 5 °C intervals. […] Fortunately, the majority of saturated EDA systems studied suffered experimentally from much smaller deviations, as detailed in the Supplementary Materials (see Section S2.1), and the ones presented in Figure 1 show the worst extremes.
The datasets used for model development underwent curing and unification. All solubility data in neat solvents were analyzed using a simple thermodynamic model relying on the fundamental van’t Hoff equation extended for the temperature dependence of the equilibrium constant by a polynomial fit. The following equation (1) lnxEcur=A+B/T+C/T^2 has three adjustable parameters, the values of which were computed by minimizing root mean square deviations (RMSD) between experimental and computed values. The collection of obtained parameter values for all analyzed systems (including literature data), along with graphical illustrations, is provided in the Supplementary Materials (see Section S2, Table S3 and Figure S2).

## CC1=NN(c2ccccc2)C(=O)C1 [Edaravone, 5-methyl-2-phenyl-4H-pyrazol-3-one]
x2*=1.00, 0 °C
  log(x1consensus): -1.93
x2*=1.00, 5 °C
  log(x1consensus): -1.87
x2*=1.00, 10 °C
  log(x1consensus): -1.80
x2*=1.00, 15 °C
  log(x1consensus): -1.73
x2*=1.00, 20 °C
  log(x1consensus): -1.66
